Experimental data: PubChem BioAssay (NCI)
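Assay format: 96-well plates, 48-hour exposure. GI50 is the concentration that inhibits growth by half. Definition used: TGI = concentration required for complete inhibition of growth.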

Tests used:
Assay in all cases: DTP human tumour cell line panel, 48 h
NCI-H226 lung = test system: NCI-H226 lung
A498 renal = test system: A498 renal
SK-MEL-2 melanoma = test system: SK-MEL-2 melanoma
UO-31 renal = test system: UO-31 renal
LOX IMVI melanoma = test system: LOX IMVI melanoma
DU-145 prostate = test system: DU-145 prostate
UACC-62 melanoma = test system: UACC-62 melanoma
RXF 393 renal = test system: RXF 393 renal
SK-MEL-5 melanoma = test system: SK-MEL-5 melanoma
SNB-75 CNS = test system: SNB-75 CNS
NCI-H460 lung = test system: NCI-H460 lung
U251 CNS = test system: U251 CNS
OVCAR-4 ovarian = test system: OVCAR-4 ovarian
A549 NSCLC = test system: A549 NSCLC
HS 578T breast = test system: HS 578T breast
SF-539 CNS = test system: SF-539 CNS
SK-OV-3 ovarian = test system: SK-OV-3 ovarian
SNB-19 CNS = test system: SNB-19 CNS
SF-295 CNS = test system: SF-295 CNS
RPMI-8226 leukemia = test system: RPMI-8226 leukemia
HOP-62 NSCLC = test system: HOP-62 NSCLC
COLO 205 colon = test system: COLO 205 colon
NCI-H23 lung = test system: NCI-H23 lung
UACC-257 melanoma = test system: UACC-257 melanoma
TK-10 renal = test system: TK-10 renal
CCRF-CEM leukemia = test system: CCRF-CEM leukemia
BT-549 breast = test system: BT-549 breast
SN12C renal = test system: SN12C renal
MALME-3M melanoma = test system: MALME-3M melanoma
HL-60(TB) leukemia = test system: HL-60(TB) leukemia
SR leukemia = test system: SR leukemia
HCT-116 colon = test system: HCT-116 colon
SF-268 CNS = test system: SF-268 CNS
T-47D breast = test system: T-47D breast
MDA-MB-231 breast = test system: MDA-MB-231 breast
PC-3 prostate = test system: PC-3 prostate
OVCAR-5 ovarian = test system: OVCAR-5 ovarian

`O=C(Nc1ccc(Br)cc1)Nc1nc2ccc([N+](=O)[O-])cc2s1` gave a GI50 (NCI-H226 lung) of 1440 nM, a TGI (NCI-H226 lung) of 3090 nM and a GI50 (A498 renal) of 192 nM. It also gave a TGI (A498 renal) of 785 nM, a GI50 (SK-MEL-2 melanoma) of 1260 nM and a TGI (SK-MEL-2 melanoma) of 3000 nM. For the same compound, the GI50 (UO-31 renal) was 1490 nM, the TGI (UO-31 renal) was 4740 nM and the GI50 (LOX IMVI melanoma) was 1340 nM. For the same compound, the TGI (LOX IMVI melanoma) was 2670 nM, the GI50 (DU-145 prostate) was 1730 nM and the TGI (DU-145 prostate) was 4680 nM. The GI50 (UACC-62 melanoma) was 1070 nM, the TGI (UACC-62 melanoma) was 3600 nM and the GI50 (RXF 393 renal) was 862 nM. The TGI (RXF 393 renal) was 2410 nM, the GI50 (SK-MEL-5 melanoma) was 696 nM and the TGI (SK-MEL-5 melanoma) was 2030 nM. The GI50 (SNB-75 CNS) was 1070 nM, the TGI (SNB-75 CNS) was 3000 nM and the GI50 (NCI-H460 lung) was 1280 nM. The TGI (NCI-H460 lung) was 3080 nM, the GI50 (U251 CNS) was 1200 nM and the TGI (U251 CNS) was 4260 nM. For the same compound, the GI50 (OVCAR-4 ovarian) was 1130 nM, the TGI (OVCAR-4 ovarian) was 3820 nM and the GI50 (A549 NSCLC) was 1860 nM. For the same compound, the TGI (A549 NSCLC) was 6900 nM, the GI50 (HS 578T breast) was 1470 nM and the TGI (HS 578T breast) was 3990 nM. The GI50 (SF-539 CNS) was 1310 nM, the TGI (SF-539 CNS) was 3080 nM and the GI50 (SK-OV-3 ovarian) was 1590 nM. For the same compound, the TGI (SK-OV-3 ovarian) was 6750 nM, the GI50 (SNB-19 CNS) was 1180 nM and the TGI (SNB-19 CNS) was 4070 nM. For the same compound, the GI50 (SF-295 CNS) was 1270 nM, the TGI (SF-295 CNS) was 2950 nM and the GI50 (RPMI-8226 leukemia) was 425 nM. The TGI (RPMI-8226 leukemia) was 1700 nM, the GI50 (HOP-62 NSCLC) was 1880 nM and the TGI (HOP-62 NSCLC) was 5040 nM. The GI50 (COLO 205 colon) was 1640 nM, the TGI (COLO 205 colon) was 3150 nM and the GI50 (NCI-H23 lung) was 926 nM. The TGI (NCI-H23 lung) was 2500 nM, the GI50 (UACC-257 melanoma) was 1430 nM and the TGI (UACC-257 melanoma) was 4110 nM. For the same compound, the GI50 (TK-10 renal) was 1890 nM, the TGI (TK-10 renal) was 4750 nM and the GI50 (CCRF-CEM leukemia) was 377 nM. It also gave a TGI (CCRF-CEM leukemia) of 2740 nM, a GI50 (BT-549 breast) of 1520 nM and a TGI (BT-549 breast) of 3270 nM. The GI50 (SN12C renal) was 1530 nM, the TGI (SN12C renal) was 4650 nM and the GI50 (MALME-3M melanoma) was 792 nM. It also gave a TGI (MALME-3M melanoma) of 3490 nM, a GI50 (HL-60(TB) leukemia) of 1020 nM and a TGI (HL-60(TB) leukemia) of 2750 nM. The GI50 (SR leukemia) was 474 nM, the TGI (SR leukemia) was 2280 nM and the GI50 (HCT-116 colon) was 875 nM. The TGI (HCT-116 colon) was 2370 nM, the GI50 (SF-268 CNS) was 1690 nM and the TGI (SF-268 CNS) was 5440 nM. It also gave a GI50 (T-47D breast) of 573 nM, a TGI (T-47D breast) of 3380 nM and a GI50 (MDA-MB-231 breast) of 1470 nM. It also gave a TGI (MDA-MB-231 breast) of 3500 nM, a GI50 (PC-3 prostate) of 542 nM and a TGI (PC-3 prostate) of 2080 nM. The GI50 (OVCAR-5 ovarian) was 2080 nM and the TGI (OVCAR-5 ovarian) was 5070 nM.
